Assay results as given in PubChem BioAssay AID2060508 (Molecular Pharmacology Branch, DTP, NCI, 2025).

Tested on: 454973-116-R2-J3-PDC spheroids, viability, % test/control
Assay: Anticancer human tumor 454973-116-R2-J3-PDC patient-derived pancreatic carcinoma cell line growth inhibition [GQUAD]
Details: second compound 1 µM; first compound 0.316 µM; stronger effect = lower value; spheroids with HUVEC and MSC
Outline: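 Multi-cell-type spheroids of tumor cells with HUVEC and mesenchymal stem cells, treated with drug combinations. Concentrations descend in half-log steps from near clinical Cmax, or from 10 microM where Cmax is unknown; viability read-out.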
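Further: spheroids exposed to compounds for seven days; 100% = DMSO vehicle control viability.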

First: COc1ncnc(C2CC2)c1-c1ncc2cnn(Cc3ccc(-c4nc(C(F)(F)F)cn4C(C)C)cc3)c2n1 + CN(C)c1ccc(Nc2c3ccc(NC(=O)CCN4CCCC4)cc3nc3cc(NC(=O)CCN4CCCC4)ccc23)cc1
Second: CC(C)n1c(=O)n(C)c2cnc3cc(F)c(-c4ccc(OCCCN5CCCCC5)nc4)cc3c21 + Cc1[nH]c2ccc(F)cc2c1-c1nc2c3cccnc3c3ncccc3c2[nH]1
The viability, T/C of the first is lower: 101% for the first, 112% for the second.

First: O=C(NO)c1cnc(N2CCN(S(=O)(=O)c3ccc4ccccc4c3)CC2)nc1 + CN(C)c1ccc(Nc2c3ccc(NC(=O)CCN4CCCC4)cc3nc3cc(NC(=O)CCN4CCCC4)ccc23)cc1
Second: CC1COCCN1c1cc(C2(S(C)(=N)=O)CC2)nc(-c2ccnc3[nH]ccc23)n1 (configuration not stated) + Cc1[nH]c2ccc(F)cc2c1-c1nc2c3cccnc3c3ncccc3c2[nH]1
The viability, T/C of the first is lower: 30.3% for the first, 109% for the second.

First: CC1COCCN1c1cc(-c2ccnn2C)c2ccnc(-c3ccn[nH]3)c2n1 (configuration not stated) + Cc1[nH]c2ccc(F)cc2c1-c1nc2c3cccnc3c3ncccc3c2[nH]1
Second: COc1ccc([C@@H](O)c2cc(-c3ncnc4cc(N5CCOCC5)ccc34)c(F)cc2Cl)nn1 + Cc1[nH]c2ccc(F)cc2c1-c1nc2c3cccnc3c3ncccc3c2[nH]1
The viability, T/C of the first is lower: 32.2% for the first, 96.2% for the second.

Same assay, conditions: second compound 1 µM; first compound 1 µM; stronger effect = lower value; spheroids with HUVEC and MSC

Compared with `CC(C)(O)C1CCC(Nc2ccc3ncc(-c4cccc(C(F)(F)F)c4)n3n2)CC1` (configuration not stated) + CN(C)c1ccc(Nc2c3ccc(NC(=O)CCN4CCCC4)cc3nc3cc(NC(=O)CCN4CCCC4)ccc23)cc1, `COc1ncnc(C2CC2)c1-c1ncc2cnn(Cc3ccc(-c4nc(C(F)(F)F)cn4C(C)C)cc3)c2n1` + CN(C)c1ccc(Nc2c3ccc(NC(=O)CCN4CCCC4)cc3nc3cc(NC(=O)CCN4CCCC4)ccc23)cc1 is higher in viability, T/C: 55.8% for the first, 106% for the second.

Compared with `O=C(NO)c1cnc(N2CCN(S(=O)(=O)c3ccc4ccccc4c3)CC2)nc1` + CN(C)c1ccc(Nc2c3ccc(NC(=O)CCN4CCCC4)cc3nc3cc(NC(=O)CCN4CCCC4)ccc23)cc1, `CC1COCCN1c1cc(C2(S(C)(=N)=O)CC2)nc(-c2ccnc3[nH]ccc23)n1` (configuration not stated) + Cc1[nH]c2ccc(F)cc2c1-c1nc2c3cccnc3c3ncccc3c2[nH]1 is higher in viability, T/C: 3.47% for the first, 108% for the second.

Compared with `CC(C)n1c(=O)n(C)c2cnc3cc(F)c(-c4ccc(OCCCN5CCCCC5)nc4)cc3c21` + Cc1[nH]c2ccc(F)cc2c1-c1nc2c3cccnc3c3ncccc3c2[nH]1, `COc1ccc([C@@H](O)c2cc(-c3ncnc4cc(N5CCOCC5)ccc34)c(F)cc2Cl)nn1` + Cc1[nH]c2ccc(F)cc2c1-c1nc2c3cccnc3c3ncccc3c2[nH]1 is lower in viability, T/C: 93.3% for the first, 75.8% for the second.

Compound `CC1COCCN1c1cc(-c2ccnn2C)c2ccnc(-c3ccn[nH]3)c2n1` (configuration not stated) + Cc1[nH]c2ccc(F)cc2c1-c1nc2c3cccnc3c3ncccc3c2[nH]1 has a viability, T/C of 18.7%.

Same assay, conditions: second compound 1 µM; first compound 3.16 µM; stronger effect = lower value; spheroids with HUVEC and MSC

First: CC(C)(O)C1CCC(Nc2ccc3ncc(-c4cccc(C(F)(F)F)c4)n3n2)CC1 (configuration not stated) + CN(C)c1ccc(Nc2c3ccc(NC(=O)CCN4CCCC4)cc3nc3cc(NC(=O)CCN4CCCC4)ccc23)cc1
Second: COc1ncnc(C2CC2)c1-c1ncc2cnn(Cc3ccc(-c4nc(C(F)(F)F)cn4C(C)C)cc3)c2n1 + CN(C)c1ccc(Nc2c3ccc(NC(=O)CCN4CCCC4)cc3nc3cc(NC(=O)CCN4CCCC4)ccc23)cc1
The viability, T/C of the first is lower: 22.6% for the first, 94.2% for the second.

Going from `O=C(NO)c1cnc(N2CCN(S(=O)(=O)c3ccc4ccccc4c3)CC2)nc1` + CN(C)c1ccc(Nc2c3ccc(NC(=O)CCN4CCCC4)cc3nc3cc(NC(=O)CCN4CCCC4)ccc23)cc1 to `CC1COCCN1c1cc(C2(S(C)(=N)=O)CC2)nc(-c2ccnc3[nH]ccc23)n1` (configuration not stated) + Cc1[nH]c2ccc(F)cc2c1-c1nc2c3cccnc3c3ncccc3c2[nH]1, the viability, T/C rises from 0.09% to 72.6%.

Going from `CC(C)n1c(=O)n(C)c2cnc3cc(F)c(-c4ccc(OCCCN5CCCCC5)nc4)cc3c21` + Cc1[nH]c2ccc(F)cc2c1-c1nc2c3cccnc3c3ncccc3c2[nH]1 to `COc1ccc([C@@H](O)c2cc(-c3ncnc4cc(N5CCOCC5)ccc34)c(F)cc2Cl)nn1` + Cc1[nH]c2ccc(F)cc2c1-c1nc2c3cccnc3c3ncccc3c2[nH]1, the viability, T/C falls from 85.2% to 70.6%.

Compound `CC1COCCN1c1cc(-c2ccnn2C)c2ccnc(-c3ccn[nH]3)c2n1` (configuration not stated) + Cc1[nH]c2ccc(F)cc2c1-c1nc2c3cccnc3c3ncccc3c2[nH]1 has a viability, T/C of 20.3%.

Same assay, conditions: second compound 1 µM; first compound 10 µM; stronger effect = lower value; spheroids with HUVEC and MSC

Going from `CC(C)(O)C1CCC(Nc2ccc3ncc(-c4cccc(C(F)(F)F)c4)n3n2)CC1` (configuration not stated) + CN(C)c1ccc(Nc2c3ccc(NC(=O)CCN4CCCC4)cc3nc3cc(NC(=O)CCN4CCCC4)ccc23)cc1 to `COc1ncnc(C2CC2)c1-c1ncc2cnn(Cc3ccc(-c4nc(C(F)(F)F)cn4C(C)C)cc3)c2n1` + CN(C)c1ccc(Nc2c3ccc(NC(=O)CCN4CCCC4)cc3nc3cc(NC(=O)CCN4CCCC4)ccc23)cc1, the viability, T/C rises from 30.5% to 97.1%.

Compared with `O=C(NO)c1cnc(N2CCN(S(=O)(=O)c3ccc4ccccc4c3)CC2)nc1` + CN(C)c1ccc(Nc2c3ccc(NC(=O)CCN4CCCC4)cc3nc3cc(NC(=O)CCN4CCCC4)ccc23)cc1, `CC1COCCN1c1cc(C2(S(C)(=N)=O)CC2)nc(-c2ccnc3[nH]ccc23)n1` (configuration not stated) + Cc1[nH]c2ccc(F)cc2c1-c1nc2c3cccnc3c3ncccc3c2[nH]1 is higher in viability, T/C: 0.35% for the first, 36.5% for the second.

Going from `CC(C)n1c(=O)n(C)c2cnc3cc(F)c(-c4ccc(OCCCN5CCCCC5)nc4)cc3c21` + Cc1[nH]c2ccc(F)cc2c1-c1nc2c3cccnc3c3ncccc3c2[nH]1 to `COc1ccc([C@@H](O)c2cc(-c3ncnc4cc(N5CCOCC5)ccc34)c(F)cc2Cl)nn1` + Cc1[nH]c2ccc(F)cc2c1-c1nc2c3cccnc3c3ncccc3c2[nH]1, the viability, T/C falls from 61.5% to 48.5%.

With `CC1COCCN1c1cc(-c2ccnn2C)c2ccnc(-c3ccn[nH]3)c2n1` (configuration not stated) + Cc1[nH]c2ccc(F)cc2c1-c1nc2c3cccnc3c3ncccc3c2[nH]1 the viability, T/C was 22.8%.

Same assay, conditions: second compound 3.16 µM; first compound 0.0316 µM; stronger effect = lower value; spheroids with HUVEC and MSC

Going from `CC(C)(O)C1CCC(Nc2ccc3ncc(-c4cccc(C(F)(F)F)c4)n3n2)CC1` (configuration not stated) + CN(C)c1ccc(Nc2c3ccc(NC(=O)CCN4CCCC4)cc3nc3cc(NC(=O)CCN4CCCC4)ccc23)cc1 to `COc1ncnc(C2CC2)c1-c1ncc2cnn(Cc3ccc(-c4nc(C(F)(F)F)cn4C(C)C)cc3)c2n1` + CN(C)c1ccc(Nc2c3ccc(NC(=O)CCN4CCCC4)cc3nc3cc(NC(=O)CCN4CCCC4)ccc23)cc1, the viability, T/C rises from 85.8% to 86.2%.

First: O=C(NO)c1cnc(N2CCN(S(=O)(=O)c3ccc4ccccc4c3)CC2)nc1 + CN(C)c1ccc(Nc2c3ccc(NC(=O)CCN4CCCC4)cc3nc3cc(NC(=O)CCN4CCCC4)ccc23)cc1
Second: CC1COCCN1c1cc(C2(S(C)(=N)=O)CC2)nc(-c2ccnc3[nH]ccc23)n1 (configuration not stated) + Cc1[nH]c2ccc(F)cc2c1-c1nc2c3cccnc3c3ncccc3c2[nH]1
The viability, T/C of the first is lower: 77.8% for the first, 98.3% for the second.

First: CC(C)n1c(=O)n(C)c2cnc3cc(F)c(-c4ccc(OCCCN5CCCCC5)nc4)cc3c21 + Cc1[nH]c2ccc(F)cc2c1-c1nc2c3cccnc3c3ncccc3c2[nH]1
Second: COc1ccc([C@@H](O)c2cc(-c3ncnc4cc(N5CCOCC5)ccc34)c(F)cc2Cl)nn1 + Cc1[nH]c2ccc(F)cc2c1-c1nc2c3cccnc3c3ncccc3c2[nH]1
The viability, T/C of the first is lower: 89.1% for the first, 94.8% for the second.

Work on `CC1COCCN1c1cc(-c2ccnn2C)c2ccnc(-c3ccn[nH]3)c2n1` (configuration not stated) + Cc1[nH]c2ccc(F)cc2c1-c1nc2c3cccnc3c3ncccc3c2[nH]1 yielded a viability, T/C of 92.2%.

Same assay, conditions: second compound 3.16 µM; first compound 0.1 µM; stronger effect = lower value; spheroids with HUVEC and MSC

Compared with `CC(C)(O)C1CCC(Nc2ccc3ncc(-c4cccc(C(F)(F)F)c4)n3n2)CC1` (configuration not stated) + CN(C)c1ccc(Nc2c3ccc(NC(=O)CCN4CCCC4)cc3nc3cc(NC(=O)CCN4CCCC4)ccc23)cc1, `COc1ncnc(C2CC2)c1-c1ncc2cnn(Cc3ccc(-c4nc(C(F)(F)F)cn4C(C)C)cc3)c2n1` + CN(C)c1ccc(Nc2c3ccc(NC(=O)CCN4CCCC4)cc3nc3cc(NC(=O)CCN4CCCC4)ccc23)cc1 is higher in viability, T/C: 82.7% for the first, 91.6% for the second.

`O=C(NO)c1cnc(N2CCN(S(=O)(=O)c3ccc4ccccc4c3)CC2)nc1` + CN(C)c1ccc(Nc2c3ccc(NC(=O)CCN4CCCC4)cc3nc3cc(NC(=O)CCN4CCCC4)ccc23)cc1 gave a viability, T/C of 70.8%.
